Results taken from patent publication US10668033B2, “Modulators of the prostacyclin (PGI2) receptor useful for the treatment of disorders related thereto” (Arena Pharmaceuticals, Inc., priority 2008, dated 2020).

Tests used:
[1] = molecular target: human prostacyclin (PGI2) receptor (Homo sapiens (Human), UniProt P43119); experiment: HTRF assay for direct cAMP measurement; type: cell-based; settings: recombinant CHO-K1 cells stably transfected with human prostacyclin receptor; cAMP increase
Excerpt: Compounds were screened for agonists of the human prostacyclin (PGI2) receptor using the HTRF® assay for direct cAMP measurement (Gabriel et al., ASSAY and Drug Development Technologies, 1:291-303, 2003) and recombinant CHO-K1 cells stably transfected with human prostacyclin receptor. CHO-K1 cells were obtained from ATCC® (Manassas, Va.; Catalog # CCL-61). An agonist of the prostacyclin receptor was detected in HTRF® assay for direct cAMP measurement as a compound which increased cAMP concentration. HTRF® assay also was used to determine EC50 values for prostacyclin receptor agonists.
The HTRF® assay kit was purchased from Cisbio-US, Inc. (Bedford, Mass.; Catalog #62AM4PEC). The HTRF® assay supported by the kit is a competitive immunoassay between endogenous cAMP produced by the CHO-K1 cells and tracer cAMP labeled with the dye d2. The tracer binding is visualized by a monoclonal anti-cAMP antibody labeled with Cryptate. The specific signal (i.e., fluorescence resonance energy transfer, FRET) is inversely proportional to the concentration of unlabeled cAMP in the standard or sample.
The fluorescence ratio (665 nm/620 nm) of the standards (0.17 to 712 nM cAMP) included in the assay was calculated and used to generate a cAMP standard curve according to the kit manufacturer's instructions. The fluorescence ratio of the samples (test compound or compound buffer) was calculated and used to deduce respective cAMP concentrations by reference to the cAMP standard curve.
The HTRF® assay was carried out using a two-step protocol essentially according to the kit manufacturer's instructions, in 20 μL total volume per well in 384-well plate format (ProxiPlates; PerkinElmer, Fremont, Calif.; catalog #6008280). To each of the experimental wells was transferred 3000 recombinant CHO-K1 cells in 5 μL assay buffer (phosphate buffered saline containing calcium chloride and magnesium chloride (Invitrogen, Carlsbad, Calif.; catalog #14040) supplemented with IBMX (100 μM) and rolipram (10 μM) (phosphodiesterase inhibitors; Sigma-Aldrich, St. Louis, Mo.; catalog #15879 and catalog # R6520, respectively) and 0.1% bovine serum albumin (BSA) fraction V (Sigma-Aldrich; catalog # A3059)), followed by test compound in 5 μL assay buffer or 5 μL assay buffer. The plate was then incubated at room temperature for 1 h. To each well was then added 5 μL cAMP-d2 conjugate in lysis buffer and 5 μL Cryptate conjugate in lysis buffer according to the kit manufacturer's instructions. The plate was then further incubated at room temperature for 1 h, after which the assay plate was read.
The HTRF® readout was accomplished using a PHERAstar (BMG LABTECH Inc., Durham, N.C.) or EnVision™ (PerkinElmer, Fremont Calif.) microplate reader.

human PRP = experiment: Human platelet aggregation inhibition test; type: cell-based; settings: ADP (1×10^−5 M) induced aggregation
Experimental: Blood collected from healthy human volunteers in aqueous trisodium citrate solution was centrifuged at 150 g for 15 min and the upper layer was recovered to obtain platelet-rich plasma (PRP). The residual blood was centrifuged at 3000 g for 10 min and the supernatant was collected as platelet-poor plasma (PPP). Platelet concentration in the PRP was determined using the Z series Beckman Coulter particle counter (Beckman, Fullerton, Calif.) and adjusted to 250,000 platelets/μL using PPP. 480 μL of PRP was pre-incubated at 37° C. and stirred at 1200 rpm with 10 μL aqueous test compound solution for 1 min prior to induction of aggregation by the addition of 10 μL of aqueous adenosine diphosphate (ADP) solution to adjust the final ADP concentration in the PRP to 1×10^−5 M. The maximal amplitude of aggregation response within 3 min was determined and measured in triplicate using the Chronolog model 490 aggregometer (Chrono-log Corp., Havertown, Pa.). Percent inhibition of aggregation was calculated from the maximum decrease in optical density of the control (addition of water in place of the test compound solution) sample and of the samples containing test compound. The test compound was added to adjust the final concentration to the range 10^−9 to 10^−4 M, and IC50 values were determined by inhibition percentage of aggregation at each concentration.

beagle dog hepatocytes = experiment: Hepatocyte metabolism of Compound 22 sodium salt, dog; type: in vitro ADME; settings: 100 μM, up to 240 min
Experimental: (§1) All cryopreserved hepatocytes were thawed and diluted to a desired cell density (1×10^6 cells/mL) according to the supplier's (Xenotech) guidelines using hepatocytes isolation kit. Cell viability was determined by trypan blue exclusion using a hemacytometer. A typical incubation mixture contained human, cynomolgus monkey, beagle dog or Sprague-Dawley rat hepatocytes (200,000 cells/199 μL) in designated wells of a 48-well plate containing incubation medium (Phenol red-free Waymouth's medium). […] One incubation plate was prepared for each time point (i.e., 0, 60, 120, and 240 min) with samples being prepared in duplicate. Incubations were conducted at 37° C., 5% CO2 and 100% relative humidity in an incubator. At each time point, one incubation plate was removed form the incubator, and reaction was terminated by adding 400 μL of acetonitrile containing an internal standard. For the 0 min time point, the reactions were kept on ice before adding Compound 22 sodium salt. After 5 min on ice, the reaction mixture was terminated by adding 400 μL of acetonitrile containing an internal standard. Supernatants were transferred to labeled strip tubes with caps, which were vortexed for 3 min, and then sonicated for an additional 3 min. The samples were centrifuged for 10 min at 4000 rpm and the supernatants were used for metabolite identification. […]

[2] = tested on: cynomolgus monkey hepatocytes; experiment: Hepatocyte metabolism of Compound 22 sodium salt, monkey; type: in vitro ADME; settings: 100 μM, up to 240 min
Experimental: as §1

[3] = tested on: Sprague-Dawley rat hepatocytes; experiment: Hepatocyte metabolism of Compound 22 sodium salt, rat; type: in vitro ADME; settings: 100 μM, up to 240 min
Experimental: as §1

human hepatocytes = experiment: Hepatocyte metabolism of Compound 22 sodium salt, human; type: in vitro ADME; settings: 100 μM, up to 240 min
Experimental: as §1

[4] = In vivo metabolism of Compound 22 sodium salt in bile-duct cannulated rats; set-up: species or system Sprague-Dawley rat
Experimental: Three bile-duct cannulated male Sprague-Dawley rats were dosed intravenously (IV) at 2.00 mg/kg. In addition to plasma samples, bile and urine were collected from 0 to 48 hours post-dose.

[5] = Pharmacokinetics in rats after oral administration of Compound 99; type: in vivo, Sprague-Dawley rat
Experimental: Blood samples were obtained from 0.100 to 21.0 h post-dose for plasma drug concentration measurements. […] Pharmacokinetic parameters were estimated using non-compartmental pharmacokinetic analysis.

[6] = tested on: MCT-induced pulmonary arterial hypertension; experiment: Rat monocrotaline (MCT) model of pulmonary arterial hypertension; type: in vivo; settings: 30 mg/kg oral gavage twice a day for 21 days; 60 mg/kg MCT s.c.; male Wistar rats
Experimental: Male Wistar rats (100-150 g at start of study) (Charles River Laboratories, Wilmington, Mass.) were housed two per cage and maintained in a humidity—(40-60%) and temperature—(68-72° F.) controlled facility on a 12 hr:12 hr light/dark cycle (lights on at 6:30 am) with free access to food (Harlan Teklad, Orange Calif., Rodent Diet 8604) and water. Rats were allowed one week of habituation to the animal facility before testing.
The rat monocrotaline (MCT) model is a standard and well-accepted model of pulmonary arterial hypertension. MCT induces acute pulmonary endothelial damage associated with pulmonary vascular inflammation. […]
Rats were randomly given a single subcutaneous injection of either 60 mg/kg MCT (Sigma, St. Louis, Mo.) or 0.9% saline (sham) and assigned to receive oral administration of 20% hydroxypropyl beta-cyclodextrin (vehicle) or test compound (30 mg/kg; FIGS. 7 and 8). […] Heart chamber weights were measured on Day 22. […] The ratio of right ventricular (RV) weight to left ventricle plus septum (LV+S) weight (this ratio is indicated as “RV/(LV+S)” in FIGS. 7 and 8) was calculated as an index of the hypertrophic response to the induced pulmonary arterial hypertension and, as such, as an index of a test compound's therapeutic efficacy for pulmonary arterial hypertension.

[7] = Sprague-Dawley, rat, plasma analyte after 1.25 mg/kg oral dose of Compound 99, male rats

Chain of human prostacyclin (PGI2) receptor (P43119 whole entry): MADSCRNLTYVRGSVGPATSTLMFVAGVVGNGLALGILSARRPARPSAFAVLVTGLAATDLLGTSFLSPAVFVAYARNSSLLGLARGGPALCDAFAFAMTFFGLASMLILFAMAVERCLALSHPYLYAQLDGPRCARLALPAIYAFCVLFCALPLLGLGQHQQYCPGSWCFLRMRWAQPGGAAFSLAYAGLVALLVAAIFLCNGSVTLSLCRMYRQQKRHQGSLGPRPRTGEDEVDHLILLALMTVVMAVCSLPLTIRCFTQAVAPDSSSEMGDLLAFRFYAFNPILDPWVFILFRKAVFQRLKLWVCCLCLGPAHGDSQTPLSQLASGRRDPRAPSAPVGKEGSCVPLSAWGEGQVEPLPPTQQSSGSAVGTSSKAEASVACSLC

## O=C(O)COC[C@H]1CC[C@H](CNC(=O)N(c2ccccc2)c2cccc(Cl)c2)CC1 [Compound 6, 2-(((1r,4r)-4-((3-(3-chlorophenyl)-3-phenylureido)methyl)cyclohexyl)methoxy)acetic acid]
[1]
  EC50: 61.1 nM

## COc1ccc(N(C(=O)OC[C@H]2CC[C@H](COCC(=O)O)CC2)c2cccc(F)c2)cc1 [Compound 55, 2-(((1r,4r)-4-(((3-fluorophenyl)(4-methoxyphenyl)carbamoyloxy)methyl)cyclohexyl)methoxy)acetic acid]
[1]
  EC50: 5.14 nM

## Cc1ccc(N(C(=O)OC[C@H]2CC[C@H](COCC(=O)O)CC2)c2cccc(F)c2)s1 [Compound 71, 2-(((1r,4r)-4-(((3-fluorophenyl)(5-methylthiophen-2-yl)carbamoyloxy)methyl)cyclohexyl)methoxy)acetic acid]
[1]
  EC50: 19.1 nM

## Cc1ccc(N(C(=O)OC[C@H]2CC[C@H](COCC(=O)O)CC2)c2ccccc2)s1 [Compound 50, 2-(((1r,4r)-4-(((5-methylthiophen-2-yl)(phenyl)carbamoyloxy)methyl)cyclohexyl)methoxy)acetic acid]
Human PRP
  IC50: 0.0126 µM

## O=C(O)CNC(=O)COC[C@H]1CC[C@H](COC(=O)N(c2ccccc2)c2ccc(Cl)cc2)CC1 [Compound 100, 2-(2-(((1r,4r)-4-(((4-chlorophenyl)(phenyl)carbamoyloxy)methyl)cyclohexyl)methoxy)acetamido) acetic acid]
Beagle dog hepatocytes
  metabolite of Compound 22 sodium salt in dog hepatocytes: only detected in human and monkey
[2]
  metabolite of Compound 22 sodium salt in monkey hepatocytes: detected
[3]
  metabolite of Compound 22 sodium salt in rat hepatocytes: only detected in human and monkey
Human hepatocytes
  metabolite of Compound 22 sodium salt in human hepatocytes: detected

## O=C(O)COC[C@H]1CC[C@@H](COC(=O)N(c2ccccc2)c2cccc(Cl)c2)CC1 [Compound 30, 2-(((1s,4s)-4-(((3-chlorophenyl)(phenyl)carbamoyloxy)methyl)cyclohexyl)methoxy)acetic acid]
Human PRP
  IC50: 0.21 µM

## O=C(O)COC[C@H]1CC[C@H](CNC(=O)N(c2ccccc2)c2ccccc2)CC1 [Compound 2, 2-(((1r,4r)-4-((3,3-diphenylureido)methyl)cyclohexyl)methoxy)acetic acid]
Human PRP
  IC50: 0.073 µM

## O=C(O)COC[C@H]1CC[C@@H](COC(=O)N(c2ccccc2)c2ccc(F)cc2)CC1 [Compound 35, 2-(((1s,4s)-4-(((4-fluorophenyl)(phenyl)carbamoyloxy)methyl)cyclohexyl)methoxy)acetic acid]
[1]
  EC50: 56.9 nM

## O=C(COC[C@H]1CC[C@H](COC(=O)N(c2ccccc2)c2ccc(Cl)cc2)CC1)NCCS(=O)(=O)O [Compound 99, 2-(2-(((1r,4r)-4-(((4-chlorophenyl)(phenyl)carbamoyloxy)methyl)cyclohexyl)methoxy)acetamido) ethanesulfonic acid]
Beagle dog hepatocytes
  metabolite of Compound 22 sodium salt in dog hepatocytes: detected
[2]
  metabolite of Compound 22 sodium salt in monkey hepatocytes: detected
[4]; 2.00 mg/kg IV of Compound 22 sodium salt, bile 0 to 48 hours
  metabolite in bile: observed in bile
[4]; 2.00 mg/kg IV of Compound 22 sodium salt, urine 0 to 48 hours
  metabolite in urine: not observed in urine
[4]; 2.00 mg/kg IV, male rats
  metabolite of Compound 22 sodium salt in rats: major metabolite
[3]
  metabolite of Compound 22 sodium salt in rat hepatocytes: detected
[5]; 1.25 mg/kg oral dose in rats
  conversion to parent: converted to Compound 22
  exposure: minimal exposure
[5]; [7]
  AUC(0-t): 11.9 ng·h/mL
  Cmax at 3.33 h: 1.93 ng/mL
[5]; Sprague-Dawley, rat, plasma analyte after 1.25 mg/kg oral dose of Compound 99, male rats, read-out: terminal phase half-life (T1/2) (converted)
  half-life: 3.24 h
[5]; male, Sprague-Dawley, rat, plasma, 10 mg/kg, after oral dose of the taurine conjugate of Compound 22
  Tmax: 3 h
[5]; plasma analyte after 1.25 mg/kg oral dose of Compound 99, male rats
  time of Cmax: 3.33 h
Human hepatocytes
  metabolite of Compound 22 sodium salt in human hepatocytes: detected

## CCOc1ccc(N(C(=O)OC[C@H]2CC[C@H](COCC(=O)O)CC2)c2ccccc2)cc1 [Compound 88, 2-(((1r,4r)-4-(((4-ethoxyphenyl)(phenyl)carbamoyloxy)methyl)cyclohexyl)methoxy)acetic acid]
Human PRP
  IC50: 0.07 µM

## O=C(O)COC[C@H]1CC[C@H](COC(=O)N(c2ccccc2)c2cccc(F)c2)CC1 [Compound 23, 2-(((1r,4r)-4-(((3-fluorophenyl)(phenyl)carbamoyloxy)methyl)cyclohexyl)methoxy)acetic acid]
[6]
  hypertrophic response, RV/(LV+S): inhibited the hypertrophic response
